# Assay results taken from patent US12583892B2 (priority 2020, dated 2026).
# System: NMDAR-dependent EPSCs
# Format: cell-based, rat
compound,measurement,value
CC(C(O)c1ccc(O)cc1)N1CCC(Cc2ccccc2)CC1 (stereo not shown) [ifenprodil],"NMDARs-dependent EPSCs, young neurons",inhibition
